According to article PMC10880116, “Identification of potential anti-inflammatory components in Moutan Cortex by bio-affinity ultrafiltration coupled with ultra-performance liquid chromatography mass spectrometry” (Frontiers in Pharmacology, 2024):

Assays:
COX-2 [1] = biological target: T1, COX-2 (Homo sapiens, UniProt P35354); assay: COX-2 inhibitory activity (COX-2 Inhibitor Screening Kit, fluorescence)
T1 sequence (P35354 18-604): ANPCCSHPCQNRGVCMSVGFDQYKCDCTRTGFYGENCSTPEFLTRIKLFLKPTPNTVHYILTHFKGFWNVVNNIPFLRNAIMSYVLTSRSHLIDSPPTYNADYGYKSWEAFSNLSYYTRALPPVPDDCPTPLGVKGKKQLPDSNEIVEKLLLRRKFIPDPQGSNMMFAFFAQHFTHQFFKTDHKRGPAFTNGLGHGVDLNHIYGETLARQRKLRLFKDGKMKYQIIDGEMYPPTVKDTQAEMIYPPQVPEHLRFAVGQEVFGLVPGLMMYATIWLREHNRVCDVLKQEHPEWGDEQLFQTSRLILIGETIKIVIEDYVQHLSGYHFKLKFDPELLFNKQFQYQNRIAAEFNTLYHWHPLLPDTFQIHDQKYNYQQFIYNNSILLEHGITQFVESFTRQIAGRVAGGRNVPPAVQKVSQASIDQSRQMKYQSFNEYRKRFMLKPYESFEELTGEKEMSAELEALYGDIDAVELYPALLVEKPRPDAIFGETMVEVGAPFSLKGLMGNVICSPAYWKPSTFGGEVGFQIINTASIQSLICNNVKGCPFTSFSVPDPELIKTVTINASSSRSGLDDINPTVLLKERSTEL
Description: In this experiment, the inhibitory effect was determined by using COX-2 Inhibitor Screening Kits. A 96-well black plate was employed, where COX-2 cofactor working solution (5 μL), COX-2 assay buffer (75 μL), test solution (5 μL), and COX-2 working solution (5 uL) were mixed and incubated for 10 min at 37°C in the dark. Then 5 μL of probe solution, together with 5 μL of COX-2 substrate solution, was added immediately. After a 37°C incubation in the dark for another 5 min, the fluorescence value was determined at an excitation wavelength of 560 nm and emission wavelength of 590 nm. […] Besides, COX-2 Assay Buffer was used in the blank control group to replace COX-2 working solution. MC extract or potential inhibitors were dissolved with DMSO as the test solution in the sample groups.
Where, F1, F2, and F3 respectively indicate the fluorescence value of the three groups—100% enzyme activity control group, sample group and blank control group.

RAW264.7 cells = assay: Cell viability assay (MTT); format: cell-based, mouse; details: 12 h
Description: RAW264.7 cells originated from mouse macrophage cell line were purchased from the American Type Culture Collection. DMEM medium containing 5% fetal bovine serum and 1% Penicillin G Streptomycin was used to culture the cells under 37°C in a humidified atmosphere of 5% CO2.
Then DEME with 20% MTT solution was added, followed by a 37°C incubation for extra 4 h. After the supernatant was removed, DMSO was added to dissolve the insoluble formazan product. The optical density was measured by a microplate reader at 490 nm. In this experiment, the formula used to calculate cell viability was as follows: Cell viability %=ODexperimental group– ODblank group/ODcontrol group– ODblank group×100%

COX-2 [2] = biological target: T1, COX-2; details: 20 μM, mixture of positive and negative control, affinity ultrafiltration
Description: An experimental group and inactivated enzyme group were set up in this study for comparison. 40 μL of 100 mg/mL MC extract as well as 280 μL of COX-2 (100 U/mL) was transferred to EP tube in the experimental group, in contrast to the control group where 280 μL of inactivated COX-2 (boiled in the water bath for 30 min) was used as the substitute of the activated enzyme. The tubes from both groups were incubated at 37°C in the dark for 40 min, aiming to create an optimal condition under which the potentially suitable ligands would completely combined with the enzyme. A centrifugal filter was employed for ultrafiltration at 15000 × g for 15 min. Afterwards, 300 μL of PBS was added to the samples, and the unbound small molecules were removed by 15000 × g centrifugation for 15 min. […]
UPLC-Q-Exactive-Orbitrap-MS was performed to analyze the compounds in the filtrate using Thermo Scientific Orbitrap Fusion Tribrid Mass Spectrometer (Thermo Fisher Scientific, United States) and Ultimate 3,000 Ultra-performance liquid chromatograph, at the same time with Waters ACQUITY UPLC BEH RP18 (2.1 mm × 100 mm, 1.7 μm) employed for chromatographic analysis. […] The measurements were read at the detection wavelength of 254 nm. […] By comparing peak areas of two groups, specific ligands binding to COX-2 were determined. […]

Row | IC50 (COX-2 [1]) | SMILES | Concentration exhibiting no cytotoxicity against RAW264.7 cells (RAW264.7 cells; MTT) | Concentration exhibiting no cytotoxicity against RAW264.7 cells (RAW264.7 cells; mouse) | Response value (HPLC peak) in active enzyme group compared with inactivated enzyme control group (COX-2 [2])
1 | 12.1 µM | COC(=O)c1cc(O)c(O)c(O)c1 [Methyl gallate] | ≤ 10 µM | – | –
2 | 220 µM | O=C(OC[C@H]1O[C@@H](OC(=O)c2cc(O)c(O)c(O)c2)[C@H](OC(=O)c2cc(O)c(O)c(O)c2)[C@@H](OC(=O)c2cc(O)c(O)c(O)c2)[C@@H]1OC(=O)c1cc(O)c(O)c(O)c1)c1cc(O)c(O)c(O)c1 [PGG, 1,2,3,4,6-Penta-O-galloyl-β-D-glucopyranose] | – | ≤ 150 µM | –
3 | – | Nc1ncnc2c1ncn2[C@@H]1O[C@H](CO)[C@@H](O)[C@H]1O [adenosine, Adenosine] | – | – | no evident change
4 | 1.04 µM | O=C(OC[C@H]1O[C@@H](OC(=O)c2cc(O)c(O)c(O)c2)[C@H](OC(=O)c2cc(O)c(O)c(O)c2)[C@@H](OC(=O)c2cc(O)c(O)c(O)c2)[C@@H]1O)c1cc(O)c(O)c(O)c1 [TGG, 1,2,3,6-Tetra-O-galloyl-β-D-glucose] | ≤ 20 µM | – | –

Row | SMILES | IC50 (COX-2 [1]) | Concentration exhibiting no cytotoxicity against RAW264.7 cells (RAW264.7 cells; MTT) | Concentration exhibiting no cytotoxicity against RAW264.7 cells (RAW264.7 cells; mouse) | Response value (HPLC peak) in active enzyme group compared with inactivated enzyme control group (COX-2 [2])
5 | C[C@@]12C[C@@]3(O)O[C@@H](O1)[C@]1(COC(=O)c4ccccc4)[C@H]3C[C@@]12O[C@@H]1O[C@H](COC(=O)c2cc(O)c(O)c(O)c2)[C@@H](O)[C@H](O)[C@H]1O [Galloylpaeoniflorin] | 6.68 ± 1.29 µM | ≤ 100 µM | – | –
6 | O=C(O)c1cc(O)c(O)c(O)c1 [Gallic acid] | 1520 µM | ≤ 250 µM | – | –
